{
  "source": "patent US20080015186A1",
  "about": "“PHARMACEUTICAL CO[…] C[…] CANNABINOID RECEPTOR ANTAGONIST AND AN ANTIPSYCHOTIC” (SANOFI-AVENTIS, priority 2005, published 2008)",
  "experiment": "Effect of rimonabant on the weight gain induced by treatment with risperidone (cumulative weight gain and feed consumption)",
  "format": "in vivo",
  "details": "female Wistar rats on fat-rich feed, risperidone 0.3 mg/kg i.p., rimonabant 1 mg/kg p.o. (or vehicle p.o.)",
  "method": "Female Wistar rats, fed with a fat-rich feed for the three days preceding the treatment and during the treatment, are used.\nGroups of 15 animals receive each day: • group 1: risperidone (0.3 mg/kg, i.p.) and the vehicle (p.o.); • group 2: risperidone (0.3 mg/kg, i.p.) and rimonabant (1 mg/kg, p.o.); • group 3: the two vehicles (i.p. and p.o.);\nOn the ninth day of the treatment, the cumulative weight gain over the nine days of treatment and the feed consumption on day 9 are measured.",
  "data": [
    {"smiles": "Cc1nc2n(c(=O)c1CCN1CCC(c3noc4cc(F)ccc34)CC1)CCCC2", "note": "[risperidone]", "values": [
      {"measurement": "Cumulative weight gain over the nine days of treatment", "setting": "15/group, daily dosing for 9 days", "result": "23.5 g ± 1.7"},
      {"measurement": "Mean feed intake on the ninth day", "setting": "day 9 of treatment", "result": "15.0 g ± 0.7"},
      {"measurement": "Number of rats/group (%) with a weight gain <20 g", "setting": "nine days of treatment", "result": 20, "unit": "%"},
      {"measurement": "Number of rats/group (%) with a weight gain >20 g", "setting": "nine days of treatment", "result": 80, "unit": "%"}
    ]}
  ]
}
